Like-named read-outs stand apart in the source and are kept apart here.
Tests used:
Assay type in all cases: in vivo
[1] = test system: tobacco mosaic virus (烟草花叶病毒(TMV)); test: 直接抗TMV活性, 半叶法; conditions: for inhibition at 100 µg/mL: Tobacco mosaic virus
[2] = test system: tobacco mosaic virus (烟草花叶病毒(TMV)); test: 诱导烟草抗TMV活性 (活体诱导); conditions: for inhibition at 100 µg/mL: Tobacco mosaic virus, read-out: antiviral activity (inhibition rate): induction activity
[3] = test system: diamondback moth (小菜蛾); test: 小菜蛾杀虫活性, 叶片药膜法; conditions: for mortality at 200 µg/mL: Plutella xylostella, read-out: kill rate
[4] = TMV, 100 mg/L, read-out: antiviral activity (inhibition rate): curative activity
[5] = TMV, 100 mg/L, read-out: antiviral activity (inhibition rate): inactivation activity
[6] = TMV, 100 mg/L, read-out: antiviral activity (inhibition rate): protective activity
[7] = induced resistance of tobacco to TMV, 100 mg/L
[8] = induced resistance of tobacco to TMV
[9] = 200 mg/L, 2nd instar larvae, 96 h or 120 h

Question: Which results are given for `Cc1ccc(NC(=O)c2snnc2C)cc1Cl` [TDL, 噻酰菌胺]?
Answer: inhibition at 100 µg/mL [1, 4]: 23.5 ± 4.41%; inhibition at 100 µg/mL [1, 5]: 20.5 ± 3.88%; inhibition at 100 µg/mL [1, 6]: 20.1 ± 6.41%; inhibition at 100 µg/mL [2, 7]: 47.5 ± 3.75%; induction activity (in words) [2, 8]: 具有很好的诱导烟草产生对TMV的抗性; antiviral activity (inhibition rate): induction activity [2, 7]: 47%

Question: Which results are given for `O=[N+]([O-])NC1=NCCN1Cc1ccc(Cl)nc1` [吡虫啉]?
Answer: kill rate [3, 9]: 0%; mortality at 200 µg/mL [3]: 0%

Question: What does the source list for `CNCC(=O)NC(CO)C(=O)NC1C(C(N)=O)OC(n2ccc(N)nc2=O)C(O)C1O` (stereo not shown) [宁南霉素]?
Answer: direct antiviral activity (in words) ([1]; TMV): 具有很好的直接抗病毒活性; inhibition at 100 µg/mL ([1]; read-out: antiviral activity (inhibition rate): curative activity): 41.7 ± 2.25%; inhibition at 100 µg/mL ([1]; read-out: antiviral activity (inhibition rate): inactivation activity): 43.1 ± 4.07%; inhibition at 100 µg/mL ([1]; read-out: antiviral activity (inhibition rate): protective activity): 42.9 ± 1.59%; inhibition at 100 µg/mL [2]: 25 ± 3.75%; induction activity (in words) [2, 8]: 几乎没有诱导活性

Question: Which kill rate [3, 9] does the source give for `CNC(=O)c1cc(Cl)cc(C)c1NC(=O)c1cc(Br)nn1-c1ncccc1Cl` [氯虫苯甲酰胺] here?
Answer: Its kill rate is 100%.

Question: What about the mortality at 200 µg/mL [3, 9] of the same compound?
Answer: Its mortality at 200 µg/mL is 100%.

Question: With `NC(=O)c1ncn([C@@H]2O[C@H](CO)[C@@H](O)[C@H]2O)n1` [病毒唑] as the compound, how does the “direct antiviral activity (in words)” value ([1]; TMV) read?
Answer: The value was “具有很好的直接抗病毒活性”.

Question: And the inhibition at 100 µg/mL [1, 4]?
Answer: Its inhibition at 100 µg/mL is 44.1 ± 2.94%.

Question: And the inhibition at 100 µg/mL [1, 5]?
Answer: Its inhibition at 100 µg/mL is 25.6 ± 3.87%.

Question: And the inhibition at 100 µg/mL [1, 6]?
Answer: The inhibition at 100 µg/mL was 46 ± 4.2%.

Question: What about the inhibition at 100 µg/mL [2, 7] of the same compound?
Answer: The inhibition at 100 µg/mL was 27.1 ± 4.39%.

Question: What about the “induction activity (in words)” value [2, 8] of the same compound?
Answer: The value was “几乎没有诱导活性”.

Source: patent CN103483288A, “一类3,4-二氯异噻唑双酰肼类化合物及其制备方法和用途” (priority 2013, dated 2014)
